Source: patent US20250275993A1, “GLYCOSYLATION INHIBITORS AS THERAPEUTICS FOR STROKE” (The Regents of the University of California, priority 2022, published 2025)

What was measured:
[1] = system: human keratinocytes; assay: Human keratinocyte proliferation assay; assay type: cell-based
Experimental: (§1) Proliferation assays with fibroblasts were done in low-glucose DMEM containing 1% FBS, with or without 10 ng/ml bFGF, or 100 ng/ml human EGF and the assay was ended at day 3. ARPE-19 cells were gently lifted with 0.025% trypsin and plated in RtEGM media (Clonetics) containing 2% FBS, L-glutamine, human bFGF and GA-1000. Once cells were attached to plates, serum-free RtEGM media was used to maintain the cultures. For proliferation assays, 1500 human RPE cells were plated into 96-well plates in low-glucose DMEM containing 1% FBS. A673, U87MG, Calu6 and AML12 cells were grown until confluent and were then harvested and re-suspended in appropriate assay media. For proliferation assays, cells were plated at the density of 1000-2000 cells/well in low-glucose DMEM containing 5% FBS or otherwise stated. Bovine pituitary cells (pituitary folliculostellate cells) were isolated as previously described. For proliferation assays with human epidermal keratinocytes, human DMVECs and human dermal fibroblast cells, 1000 cells/well were plated in low-glucose DMEM containing 1% FBS with or without various growth factors. The assay was ended at day 3 for bovine pituitary cells and at day 4 for all the other cell types. […] Four days later, tumor cell growth was measured by the MTS assay (Promega, Madison, WI), a colorimetric assay that measures metabolic activity of viable cells. […]

[2] = system: vascular permeability in guinea pig skin; assay: Vascular permeability assay (modified Miles assay); assay type: in vivo; settings: ManN 1 ng-5 μg, VEGF 25 ng, intradermal
Experimental: Vascular permeability was assessed using a modified Miles assay. Hairless male guinea pigs (Crl: HA-Hrhr/IAF, 75 days old, 450-500 g, Charles River Laboratories) were anesthetized by intraperitoneal (i.p.) administration of xylazine (5 mg/kg) and ketamine (75 mg/kg). The animals then received an intravenous injection (penile vein) of 1 ml of 1% Evans blue dye. After 15 mins, intradermal injections (0.05 ml/per site) of different doses of ManN were administrated into the area of trunk posterior to the shoulder. All reagents were diluted in PBS for intradermal administration. 25 ng of VEGF165 per site was used as positive control. 30 mins after the intradermal injections, animals were euthanized by i.p. injection of pentobarbital (200 mg/kg). Skin tissues were dissected from the connective tissues and photographed.

[3] = system: α-glucosidase; assay: α-glucosidase activity assay; assay type: biochemical, Saccharomyces cerevisiae; settings: up to 2 mM
Experimental: a-mannosidase activity was measured using substrate p-nitrophenyl α-mannopyranoside (1 mM). Enzyme from Jack Bean (M7257) (final concentration of 0.077 U) was incubated at 37° C. in a final volume of 50 μl of 50 mM potassium phosphate buffer, pH 7.5. α-glucosidase was assayed with substrate p-nitrophenyl a-glucoside (7 mM). Enzyme from Saccharomyces cerevisiae-type 1 (Sigma, G5003) (final concentration of 0.1 U) was incubated at 37° C. in a final volume of 50 μl of PBS, pH 7.5. β-Glucosidase was assayed with substrate 4-nitrophenyl β-D-glucopyranoside (Roche). Enzyme from almond (Sigma, G0395) (final concentration of 0.002 U) was incubated at 37° C. in a final volume of 50 μl of PBS, pH 7.5 […]. The incubation was stopped by addition of an equal volume of acid-based stop solution (R&D systems, 895032). Enzymatic activity was measured at 405 nm. α-glucosidase from Saccharomyces cerevisiae type I (G5003) with p-nitrophenyl α-D-glucopyranoside (Sigma, N1377) as the substrate.

[4] = system: ARPE-19 RPE cells; assay: Human RPE proliferation assay; assay type: cell-based
Experimental: as §1

[5] = system: N-linked glycans from BCECs; assay: N-glycan analysis of BCECs; assay type: cell-based, bovine
Experimental: As soon as BCECs reached about 80% confluency, they were washed twice with phosphate buffered saline (PBS, Sigma) and harvested by scraping. The cells were pelleted by centrifugation at 300 g for 3 mins and washed once with cold PBS. Cells were homogenized and total protein was measured. All subsequent analysis was based on known protein amount.
N-linked glycans were removed from glycoprotein samples using PNGase-F kit (New England BioLabs, P0705S). Briefly, 300 μg of protein sample was reconstituted in 180 μl UltraPure water. 20 μl of 10× denaturing buffer was added and boiled using 100° C. water bath for 14 mins. Samples were cooled down to room temperature and centrifuged at 2700 g for 1 min. Subsequently, 50 μl 10×NP-40 was added and samples were kept at room temperature for 30 mins with vortexing at 5 min interval, followed by adding 25 μL of 10× reaction buffer and mixing thoroughly. 5 μl PNGaseF (2500 U) was then added to the samples and mixed gently. Samples were incubated at 37° C. for 16 hrs. Released N-glycans were purified using solid phase extraction method. […] The data was collected using the Dionex ICS-3000 HPLC system with Ultimate 3000 fluorescence detector (Dionex) set at Acx 330 nm at Atm 420 nm with sensitivity 7. […]

[6] = system: human dermal fibroblasts; assay: Human dermal fibroblast proliferation assay; assay type: cell-based; settings: alone or in combination with growth factors
Experimental: as §1

[7] = system: Calu6; assay: Calu6 proliferation assay; assay type: cell-based; settings: ManN
Experimental: as §1

[8] = alone or in combination with growth factors

N[C@H](C=O)[C@@H](O)[C@H](O)[C@H](O)CO [ManN, 2-Amino-2-deoxy-D-mannose]
sensitivity of human keratinocytes to ManN toxicity ([1]; 5 mM level of ManN): least sensitive ones
proliferation of human keratinocytes [1, 8]: no increases in proliferation
induction of vascular permeability [2]: no permeability-enhancing effects
effect on α-glucosidase [3]: No effect
sensitivity of human RPE cells to ManN toxicity ([4]; 5 mM level of ManN): least sensitive ones
proliferation of human RPEs [4, 8]: no increases in proliferation
Man-5 and Man-7 content ([5]; 40 μM ManN): significant early phase accumulation
Man-6, Man-8 and Man-9 in total oligomannose N-glycan content ([5]; 40 μM ManN vs untreated control): significant time-dependent reduction
proliferation of human dermal fibroblasts [6]: no increases in proliferation
growth of Calu6 [7]: did not promote growth
